According to patent publication US12667572B2, “Tricyclic compounds useful in the treatment of cancer, autoimmune and inflammatory disorders” (SCHRÖDINGER, INC., priority 2021, dated 2026):

Target: T1, full-length MALT1 protein His-MALT1(1-824) (Homo sapiens, UniProt Q9UDY8)
T1 construct: full-length MALT1 protein His-MALT1(1-824); His (N); made in house; host or cells: baculovirus-infected insect cells
T1 sequence (Q9UDY8 1-824): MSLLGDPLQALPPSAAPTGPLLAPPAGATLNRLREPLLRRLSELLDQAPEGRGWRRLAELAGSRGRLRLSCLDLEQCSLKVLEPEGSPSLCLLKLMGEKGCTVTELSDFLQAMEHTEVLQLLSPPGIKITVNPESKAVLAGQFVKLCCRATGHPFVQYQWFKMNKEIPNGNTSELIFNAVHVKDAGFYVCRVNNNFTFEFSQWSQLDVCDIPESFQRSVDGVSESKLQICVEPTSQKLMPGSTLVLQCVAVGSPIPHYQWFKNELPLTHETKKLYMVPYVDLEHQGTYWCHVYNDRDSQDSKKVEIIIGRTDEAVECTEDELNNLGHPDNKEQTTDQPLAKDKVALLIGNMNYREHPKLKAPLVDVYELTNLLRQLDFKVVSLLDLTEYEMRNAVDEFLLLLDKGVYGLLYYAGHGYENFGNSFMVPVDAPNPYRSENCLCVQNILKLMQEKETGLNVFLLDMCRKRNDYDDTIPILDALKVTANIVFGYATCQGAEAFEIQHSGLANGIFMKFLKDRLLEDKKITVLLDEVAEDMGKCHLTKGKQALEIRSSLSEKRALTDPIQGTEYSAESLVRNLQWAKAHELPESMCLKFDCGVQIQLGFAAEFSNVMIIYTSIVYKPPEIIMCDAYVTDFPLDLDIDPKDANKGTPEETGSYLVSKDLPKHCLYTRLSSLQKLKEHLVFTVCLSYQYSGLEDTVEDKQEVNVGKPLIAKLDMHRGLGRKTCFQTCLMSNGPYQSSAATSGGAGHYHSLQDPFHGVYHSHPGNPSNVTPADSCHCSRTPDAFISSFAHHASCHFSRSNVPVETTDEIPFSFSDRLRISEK
Experiment: MALT1 protease assay, Assay 2 (1 nM MALT1, Ac-LRSR-AMC substrate)
Format: biochemical
Details: 1 nM MALT1, 50 μM Ac-LRSR-AMC, 2 h pre-incubation, 8 hr incubation at RT
In short: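 Full-length His-MALT1(1-824) from baculovirus-infected insect cells, pre-incubated with compound 2 h at RT (0.1% DMSO). Then 50 μM Ac-LRSR-AMC added. Buffer was Tris pH 7.5 with 600 mM sodium citrate, DTT, EDTA and BSA. Fluorescence (ex 355/em 460 nm) was read after 8 h at RT and normalized to high/low controls. IC50 from non-linear regression.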

Structure (SMILES) | IC50
CCO[C@@]1(C(F)(F)F)C[C@H](C(=O)Nc2cnc(-n3nccn3)c(Cl)c2)c2cnc3cc(Cl)nn3c21 (single isomer, unassigned) [Example 168, (trans)-2-chloro-N-(5-chloro-6-(2H-1,2,3-triazol-2-yl)pyridin-3-yl)-8-ethoxy-8-(trifluoromethyl)-7,8-dihydro-6H-cyclopenta[e]pyrazolo[1,5-a]pyrimidine-6-carboxamide] | 100 to 1000 nM
CC1(C)C[C@@H](C(=O)Nc2cc(C#N)c(OC(F)F)cn2)c2cnc3cc(F)nn3c21 (single isomer, unassigned) [Example 169] | ≥ 1000 nM
CC1(C)C[C@H](C(=O)Nc2cc(C#N)c(OC(F)F)cn2)c2cnc3cc(F)nn3c21 (single isomer, unassigned) [Example 170] | 10 to 100 nM
CC1(C)C[C@@H](C(=O)Nc2cnc(C(=O)NC3CC3)c(C(F)F)c2)c2cnc3cc(Cl)nn3c21 (single isomer, unassigned) [Example 172] | ≥ 1000 nM
CC1(C)C[C@H](C(=O)Nc2cnc(C(=O)NC3CC3)c(C(F)F)c2)c2cnc3cc(Cl)nn3c21 (single isomer, unassigned) [Example 173] | 10 to 100 nM
Cc1cc(NC(=O)[C@@H]2CC(C)(C)c3c2cnc2cc(Cl)nn32)cnc1-n1nccn1 (single isomer, unassigned) [Example 180] | ≥ 1000 nM
Cc1cc(NC(=O)[C@@H]2CC(C)(C)c3c2cnc2cc(Cl)nn32)cnc1-n1nccn1 (single isomer, unassigned) [Example 181] | 10 to 100 nM
Cc1cc(NC(=O)[C@@H]2CC(C)(C)c3c2cnc2cc(F)nn32)cnc1-n1nccn1 (single isomer, unassigned) [Example 182] | ≥ 1000 nM
Cc1cc(NC(=O)[C@H]2CC(C)(C)c3c2cnc2cc(F)nn32)cnc1-n1nccn1 (single isomer, unassigned) [Example 183] | 10 to 100 nM
C[C@]1(C(F)(F)F)C[C@@H](C(=O)Nc2cnc(-n3nccn3)c(Cl)c2)c2cnc3cc(F)nn3c21 (single isomer, unassigned) [Example 184] | 100 to 1000 nM
C[C@@]1(C(F)(F)F)C[C@@H](C(=O)Nc2cnc(-n3nccn3)c(Cl)c2)c2cnc3cc(F)nn3c21 (single isomer, unassigned) [Example 185] | < 10 nM
C[C@@]1(C(F)(F)F)C[C@@H](C(=O)Nc2cnc(-n3nccn3)c(Cl)c2)c2cnc3cc(F)nn3c21 (single isomer, unassigned) [Example 186] | 100 to 1000 nM
C[C@]1(C(F)(F)F)C[C@H](C(=O)Nc2cnc(-n3nccn3)c(Cl)c2)c2cnc3cc(F)nn3c21 (single isomer, unassigned) [Example 187] | 10 to 100 nM
CC1(C)C[C@@H](C(=O)Nc2ccnc(C(F)(F)F)c2)c2cnn3cc(C(F)F)nc3c21 (single isomer, unassigned) [Example 200, 2-(difluoromethyl)-9,9-dimethyl-N-(2-(trifluoromethyl)pyridin-4-yl)-8,9-dihydro-7H-cyclopenta[d]imidazo[1,2-b]pyridazine-7-carboxamide] | 100 to 1000 nM
CC1(C)CC(C(=O)Nc2ccnc(C(F)(F)F)c2)c2cnn3cc(C(F)F)nc3c21 (single isomer, unassigned) [Example 201, 2-(difluoromethyl)-9,9-dimethyl-N-(2-(trifluoromethyl)pyridin-4-yl)-8,9-dihydro-7H-cyclopenta[d]imidazo[1,2-b]pyridazine-7-carboxamide] | 100 to 1000 nM
CC1(C)CC(C(=O)Nc2cc(C(F)F)c(-c3cc[nH]n3)c(=O)[nH]2)c2cnc3cc(Cl)nn3c21 (stereo not shown) [Example 43, 2-chloro-N-(4-(difluoromethyl)-6-oxo-5˜(1H-pyrazol-3-yl)-1,6-dihydropyridin-2-yl)-8,8-dimethyl-7,8-dihydro-6H-cyclopenta[e]pyrazolo[1,5a]pyrimidine-6-carboxamide] | 10 to 100 nM
CC1(C)CC(C(=O)Nc2cc(C(F)F)c(-c3c[nH]cn3)c(=O)[nH]2)c2cnc3cc(Cl)nn3c21 (stereo not shown) [Example 48, 2-chloro-N-(4-(difluoromethyl)-5˜(1H-imidazol-4-yl)-6-oxo-1,6-dihydropyridin-2-yl)-8,8-dimethyl-7,8-dihydro-6H-cyclopenta[e]pyrazolo[1,5-a]pyrimidine-6-carboxamide] | 10 to 100 nM
CC1(C)CC(C(=O)Nc2cc(C(F)F)c(-c3cnco3)c(=O)[nH]2)c2cnc3cc(Cl)nn3c21 (stereo not shown) [Example 59, 2-chloro-N-(4-(difluoromethyl)-5˜(oxazol-5-yl)-6-oxo-1,6-dihydropyridin-2-yl)-8,8-dimethyl-7,8-dihydro-6H-cyclopenta[e]pyrazolo[1,5-a]pyrimidine-6-carboxamide] | 10 to 100 nM

Further lines, results first:

IC50 | Structure (SMILES)
100 to 1000 nM | Cc1cn2ncc3c(c2n1)C(C)(C)C[C@H]3C(=O)Nc1cnc(-n2nccn2)c(Cl)c1 (single isomer, unassigned) [Example 188, N-(5-chloro-6-(2H-1,2,3-triazol-2-yl)pyridin-3-yl)-2,9,9-trimethyl-8,9-dihydro-7H-cyclopenta[d]imidazo[1,2-b]pyridazine-7-carboxamide]
100 to 1000 nM | CC1(C)C[C@@H](C(=O)Nc2cnc(OC(F)F)c(Cl)c2)c2cnn3cc(Cl)nc3c21 (single isomer, unassigned) [Example 190, 2-chloro-N-(5-chloro-6-(difluoromethoxy)pyridin-3-yl)-9,9-dimethyl-8,9-dihydro-7H-cyclopenta[d]imidazo[1,2-b]pyridazine-7-carboxamide]
100 to 1000 nM | CC1(C)C[C@@H](C(=O)Nc2cnc(-n3nccn3)c(C(F)(F)F)c2)c2cnn3cc(Cl)nc3c21 (single isomer, unassigned) [Example 192, N-(6-(2H-1,2,3-triazol-2-yl)-5-(trifluoromethyl)pyridin-3-yl)-2-chloro-9,9-dimethyl-8,9-dihydro-7H-cyclopenta[d]imidazo[1,2-b]pyridazine-7-carboxamide]
100 to 1000 nM | CC1(C)C[C@@H](C(=O)Nc2cnc(-n3nccn3)c(Cl)c2)c2cnn3cc(Cl)nc3c21 (single isomer, unassigned) [Example 194, 2-chloro-N-(5-chloro-6-(2H-1,2,3-triazol-2-yl)pyridin-3-yl)-9,9-dimethyl-8,9-dihydro-7H-cyclopenta[d]imidazo[1,2-b]pyridazine-7-carboxamide]
100 to 1000 nM | CC1(C)C[C@@H](C(=O)Nc2cnc(-n3nccn3)c(C#N)c2)c2cnn3cc(C(F)F)nc3c21 (single isomer, unassigned) [Example 196, N-(5-cyano-6-(2H-1,2,3-triazol-2-yl)pyridin-3-yl)-2-(difluoromethyl)-9,9-dimethyl-8,9-dihydro-7H-cyclopenta[d]imidazo[1,2-b]pyridazine-7-carboxamide]
10 to 100 nM | CC1(C)CC(C(=O)Nc2cnc(-n3nccn3)c(C#N)c2)c2cnn3cc(C(F)F)nc3c21 (single isomer, unassigned) [Example 197, N-(5-cyano-6-(2H-1,2,3-triazol-2-yl)pyridin-3-yl)-2-(difluoromethyl)-9,9-dimethyl-8,9-dihydro-7H-cyclopenta[d]imidazo[1,2-b]pyridazine-7-carboxamide]
≥ 1000 nM | CC1(C)C[C@@H](C(=O)Nc2cnc(OC(F)F)c(C#N)c2)c2cnn3cc(C(F)F)nc3c21 (single isomer, unassigned) [Example 198, N-(5-cyano-6-(difluoromethoxy)pyridin-3-yl)-2-(difluoromethyl)-9,9-dimethyl-8,9-dihydro-7H-cyclopenta[d]imidazo[1,2-b]pyridazine-7-carboxamide]
10 to 100 nM | CC1(C)CC(C(=O)Nc2cnc(OC(F)F)c(C#N)c2)c2cnn3cc(C(F)F)nc3c21 (single isomer, unassigned) [Example 199, N-(5-cyano-6-(difluoromethoxy)pyridin-3-yl)-2-(difluoromethyl)-9,9-dimethyl-8,9-dihydro-7H-cyclopenta[d]imidazo[1,2-b]pyridazine-7-carboxamide]
100 to 1000 nM | CC1(C)C[C@@H](C(=O)Nc2cnc(-n3nccn3)c(Cl)c2)c2cnn3cc(C(F)F)nc3c21 (single isomer, unassigned) [Example 202, N-(5-chloro-6-(2H-1,2,3-triazol-2-yl)pyridin-3-yl)-2-(difluoromethyl)-9,9-dimethyl-8,9-dihydro-7H-cyclopenta[d]imidazo[1,2-b]pyridazine-7-carboxamide]
10 to 100 nM | CC1(C)CC(C(=O)Nc2cnc(-n3nccn3)c(Cl)c2)c2cnn3cc(C(F)F)nc3c21 (single isomer, unassigned) [Example 203, N-(5-chloro-6-(2H-1,2,3-triazol-2-yl)pyridin-3-yl)-2-(difluoromethyl)-9,9-dimethyl-8,9-dihydro-7H-cyclopenta[d]imidazo[1,2-b]pyridazine-7-carboxamide]
